Converted amounts (≈) assume the structure as drawn.
The molecules below were run on E. faecium com15 (assay: Syn-BNP MIC against ESKAPE pathogens: E. faecium). Conditions: E. faecium com15, Gram-positive.
Format: cell-based, Enterococcus faecium
Method: (§1) All syn-BNPs, as well as the parent antibiotic albicidin were assayed for antimicrobial activity against the ESKAPE pathogens (Enterococcus faecium, Staphylococcus aureus, Klebsiella pneumoniae, Acinetobacter baumannii, Pseudomonas aeruginosa, and Enterobacter species), which are a collection of bacteria most commonly associated with antibacterial resistant nosocomial infections. […]

Compound	MIC [µg/mL]
COc1c(NC(=O)/C(C)=C/c2ccc(O)cc2)ccc(C(=O)N[C@@H](CC#N)C(=O)Nc2ccc(C(=O)Nc3ccc(C(=O)Nc4ccc(C(=O)O)cc4)c(O)c3OC)cc2)c1O [PABA95]	8 (≈ 9.49 µM)
COc1c(NC(=O)c2ccc(NC(=O)c3ccc(NC(=O)[C@H](CC#N)NC(=O)c4ccc(NC(=O)/C(C)=C/c5ccc(O)cc5)cc4)cc3)c(OC)c2O)ccc(C(=O)O)c1O [Albicidin, reference compound]	2 (≈ 2.37 µM)

The molecules below were run on S. aureus SH1000 (assay: Syn-BNP MIC against ESKAPE pathogens: S. aureus). Conditions: S. aureus SH1000, Gram-positive.
Format: cell-based, Staphylococcus aureus
Method: as §1

Compound	MIC [µg/mL]
COc1c(NC(=O)/C(C)=C/c2ccc(O)cc2)ccc(C(=O)N[C@@H](CC#N)C(=O)Nc2ccc(C(=O)Nc3ccc(C(=O)Nc4ccc(C(=O)O)cc4)c(O)c3OC)cc2)c1O [PABA95]	4 (≈ 4.75 µM)
COc1c(NC(=O)c2ccc(NC(=O)c3ccc(NC(=O)[C@H](CC#N)NC(=O)c4ccc(NC(=O)/C(C)=C/c5ccc(O)cc5)cc4)cc3)c(OC)c2O)ccc(C(=O)O)c1O [Albicidin, reference compound]	0.5 (≈ 0.593 µM)

These molecules were tested on K. pneumoniae 10031 (assay: Syn-BNP MIC against ESKAPE pathogens: K. pneumoniae). Conditions: K. pneumoniae 10031, Gram-negative.
Format: cell-based, Klebsiella pneumoniae
Method: (§2) All syn-BNPs, as well as the parent antibiotic albicidin were assayed for antimicrobial activity against the ESKAPE pathogens (Enterococcus faecium, Staphylococcus aureus, Klebsiella pneumoniae, Acinetobacter baumannii, Pseudomonas aeruginosa, and Enterobacter species), which are a collection of bacteria most commonly associated with antibacterial resistant nosocomial infections.

Compound	MIC [µg/mL]
COc1c(NC(=O)/C(C)=C/c2ccc(O)cc2)ccc(C(=O)N[C@@H](CC#N)C(=O)Nc2ccc(C(=O)Nc3ccc(C(=O)Nc4ccc(C(=O)O)cc4)c(O)c3OC)cc2)c1O [PABA95]	>8
COc1c(NC(=O)c2ccc(NC(=O)c3ccc(NC(=O)[C@H](CC#N)NC(=O)c4ccc(NC(=O)/C(C)=C/c5ccc(O)cc5)cc4)cc3)c(OC)c2O)ccc(C(=O)O)c1O [Albicidin, reference compound]	>8

What follows are molecules tested on A. baumannii (assay: Syn-BNP MIC against ESKAPE pathogens: A. baumannii). Conditions: Gram-negative.
Format: cell-based, Acinetobacter baumannii
Method: as §2

Compound	MIC [µg/mL]
COc1c(NC(=O)/C(C)=C/c2ccc(O)cc2)ccc(C(=O)N[C@@H](CC#N)C(=O)Nc2ccc(C(=O)Nc3ccc(C(=O)Nc4ccc(C(=O)O)cc4)c(O)c3OC)cc2)c1O [PABA95]	0.5 (≈ 0.593 µM)
COc1c(NC(=O)c2ccc(NC(=O)c3ccc(NC(=O)[C@H](CC#N)NC(=O)c4ccc(NC(=O)/C(C)=C/c5ccc(O)cc5)cc4)cc3)c(OC)c2O)ccc(C(=O)O)c1O [Albicidin, reference compound]	0.125 (≈ 0.148 µM)

Each molecule was assayed on P. aeruginosa (assay: Syn-BNP MIC against ESKAPE pathogens: P. aeruginosa). Conditions: Gram-negative.
Format: cell-based, Pseudomonas aeruginosa
Method: as §2

Compound	MIC [µg/mL]
COc1c(NC(=O)/C(C)=C/c2ccc(O)cc2)ccc(C(=O)N[C@@H](CC#N)C(=O)Nc2ccc(C(=O)Nc3ccc(C(=O)Nc4ccc(C(=O)O)cc4)c(O)c3OC)cc2)c1O [PABA95]	8 (≈ 9.49 µM)
COc1c(NC(=O)c2ccc(NC(=O)c3ccc(NC(=O)[C@H](CC#N)NC(=O)c4ccc(NC(=O)/C(C)=C/c5ccc(O)cc5)cc4)cc3)c(OC)c2O)ccc(C(=O)O)c1O [Albicidin, reference compound]	1 (≈ 1.19 µM)

These molecules were tested on E. cloacae 13047 (assay: Syn-BNP MIC against ESKAPE pathogens: E. cloacae). Conditions: E. cloacae 13047, Gram-negative.
Format: cell-based, Enterobacter cloacae
Method: as §2

Compound	MIC [µg/mL]
COc1c(NC(=O)/C(C)=C/c2ccc(O)cc2)ccc(C(=O)N[C@@H](CC#N)C(=O)Nc2ccc(C(=O)Nc3ccc(C(=O)Nc4ccc(C(=O)O)cc4)c(O)c3OC)cc2)c1O [PABA95]	8 (≈ 9.49 µM)
COc1c(NC(=O)c2ccc(NC(=O)c3ccc(NC(=O)[C@H](CC#N)NC(=O)c4ccc(NC(=O)/C(C)=C/c5ccc(O)cc5)cc4)cc3)c(OC)c2O)ccc(C(=O)O)c1O [Albicidin, reference compound]	8 (≈ 9.49 µM)

The molecules below were run on E. coli 25922 (assay: Syn-BNP MIC against E. coli). Conditions: E. coli 25922, Gram-negative.
Format: cell-based, Escherichia coli

Compound	MIC [µg/mL]
COc1c(NC(=O)/C(C)=C/c2ccc(O)cc2)ccc(C(=O)N[C@@H](CC#N)C(=O)Nc2ccc(C(=O)Nc3ccc(C(=O)Nc4ccc(C(=O)O)cc4)c(O)c3OC)cc2)c1O [PABA95]	0.25 (≈ 0.297 µM)
COc1c(NC(=O)c2ccc(NC(=O)c3ccc(NC(=O)[C@H](CC#N)NC(=O)c4ccc(NC(=O)/C(C)=C/c5ccc(O)cc5)cc4)cc3)c(OC)c2O)ccc(C(=O)O)c1O [Albicidin, reference compound]	0.015 (≈ 0.0178 µM)

What follows are molecules tested on E. coli-BL21 (pET28c) (assay: not given). Conditions: empty vector.
Format: cell-based, Escherichia coli
Source text: (§3) As circumventing common antibiotic resistance mechanisms was likely to play a key role in the natural selection of antibiotic congeners, the present studies investigated whether some of the congeners evolved to evade AlbD-mediated cleavage. To determine the susceptibility of the herein described BGC-inspired analogs to AlbD encoded resistance, the MIC of each syn-BNP against E. coli engineered to express AlbD was compared to that of E. coli containing an empty expression vector.

Compound	MIC [ng/mL]
COc1c(NC(=O)/C(C)=C/c2ccc(O)cc2)ccc(C(=O)N[C@@H](CC#N)C(=O)Nc2ccc(C(=O)Nc3ccc(C(=O)Nc4ccc(C(=O)O)cc4)c(O)c3OC)cc2)c1O [PABA95]	15 (≈ 0.0178 µM)
COc1c(NC(=O)c2ccc(NC(=O)c3ccc(NC(=O)[C@H](CC#N)NC(=O)c4ccc(NC(=O)/C(C)=C/c5ccc(O)cc5)cc4)cc3)c(OC)c2O)ccc(C(=O)O)c1O [Albicidin, reference compound]	1.9 (≈ 0.00225 µM)

These molecules were tested on E. coli-BL21 (pET28c-AlbD) (assay: not given). Conditions: AlbD expressing strain versus empty vector strain.
Format: cell-based, Escherichia coli
Source text: as §3

Compound	Fold increase in MIC [fold]
COc1c(NC(=O)/C(C)=C/c2ccc(O)cc2)ccc(C(=O)N[C@@H](CC#N)C(=O)Nc2ccc(C(=O)Nc3ccc(C(=O)Nc4ccc(C(=O)O)cc4)c(O)c3OC)cc2)c1O [PABA95]	133
COc1c(NC(=O)c2ccc(NC(=O)c3ccc(NC(=O)[C@H](CC#N)NC(=O)c4ccc(NC(=O)/C(C)=C/c5ccc(O)cc5)cc4)cc3)c(OC)c2O)ccc(C(=O)O)c1O [Albicidin, reference compound]	131

Same assay, conditions: E. coli-BL21 (pET28c-AlbD)

Compound	MIC [µg/mL]
COc1c(NC(=O)/C(C)=C/c2ccc(O)cc2)ccc(C(=O)N[C@@H](CC#N)C(=O)Nc2ccc(C(=O)Nc3ccc(C(=O)Nc4ccc(C(=O)O)cc4)c(O)c3OC)cc2)c1O [PABA95]	2 (≈ 2.37 µM)
COc1c(NC(=O)c2ccc(NC(=O)c3ccc(NC(=O)[C@H](CC#N)NC(=O)c4ccc(NC(=O)/C(C)=C/c5ccc(O)cc5)cc4)cc3)c(OC)c2O)ccc(C(=O)O)c1O [Albicidin, reference compound]	0.25 (≈ 0.297 µM)

— patent publication US20250230188A1, “METAGENOME-GUIDED BIOSYNTHESIS AND COMPOUNDS AND METHODS OF USE THEREOF” (The Rockefeller University, priority 2022, published 2025)
